# Source: paper PMC8211464 (Journal of medicinal chemistry, 2021)
# Read-outs that look alike come from different tables or passages of the source.
# Columns and labels:
# Pf 3D7 = type: cell-based; conditions: Plasmodium falciparum, 3D7, read-out: Pf3D7 IC50±SD
# PfDd2 = type: cell-based; conditions: Plasmodium falciparum, read-out: PfDd2 IC50±SD
# HepG2 = conditions: read-out: HepG2 IC50; cytotoxicity; previously published ref 7 (Leven et al.); cited from earlier work
# [1] = system: FCB WT and FCB KD parasite lines; test: Potency against FCB lines with different pfmdr1 copy numbers; type: cell-based, Plasmodium falciparum; conditions: FCB WT (two copies of pfmdr1) versus FCB KD (one functional copy)
# Pf_Polδ = type: cell-based, Plasmodium falciparum; conditions: Pf_Polδ parasites exposed to 45 nM (3 × IC50)
# [2] = Snapshot in vivo PK, dried blood spots, LC-MS/MS; conditions: mouse, po; for k el: ke
# [3] = system: heme detoxification in Pf NF54 trophozoites; test: Pyridine-based cellular heme fractionation assay; type: cell-based, Plasmodium falciparum; conditions: Pf NF54, 1.5 to 2.5 × IC50
# [4] = system: compound 1-resistant clones Fl2-C4 and Fl3-C3; type: cell-based, Plasmodium falciparum; conditions: clones Fl2-C4 and Fl3-C3, standard 72 h drug-response assay
# Pf Dd2 clone B2 (Dd2-B2) = type: cell-based, Plasmodium falciparum; conditions: triplicate flasks of 2 × 10^9 Dd2-B2 parasites, 3× to 5× IC50
# [5] = human, 5 h, 1 μM, pH 7.4
# [6] = 4 × 30 mg/kg oral, monitored up to 30 days
smiles,measurement,setting,value
"C[C@H]1[C@H](OC(=O)CCC(=O)O)O[C@@H]2O[C@@]3(C)CC[C@H]4[C@H](C)CC[C@@H]1[C@@]24OO3 [AS, artesunate, reference compound]",cured (number of parasite-free mice on day 30),Plasmodium berghei; 4 × 30 mg/kg oral,0/10
"CCN(CC)CCCC(C)Nc1ccnc2cc(Cl)ccc12 (centres unmarked) [CQ, Chloroquine]",cured (number of parasite-free mice on day 30),Plasmodium berghei; 4 × 30 mg/kg oral,0/10
same,IC50,Pf 3D7,6 ± 2 nM
same,IC50,PfDd2,230 ± 100 nM
N/C(CC(O)c1cc2c(F)cc(F)cc2c2cc(C(F)(F)F)ccc12)=N\N=C\c1ccc(F)cc1 (centres unmarked) [Compound 1],cured (number of parasite-free mice on day 30),Plasmodium berghei; 4 × 10 mg/kg oral,2/3
same,cured (number of parasite-free mice on day 30),Plasmodium berghei; 4 × 30 mg/kg oral,1/3
same,MSD (mean survival time),Plasmodium berghei; [6],26 days
same,cured (number of parasite-free mice on day 30),Plasmodium berghei; 4 × 50 mg/kg oral,1/3
same,IC50,HepG2,27700 nM
same,effect of pfmdr1 copy number on sensitivity,[1],the decrease from two to one pfmdr1 copy caused a further sensitization
"COc1ccc(/N=C(\N)CC(O)c2cc3c(F)cc(F)cc3c3cc(C(F)(F)F)ccc23)cc1.Cl (centres unmarked) [Compound 22, (Z)-3-(1,3-Difluoro-6-(trifluoromethyl)phenanthrene-9-yl)-3-hydroxy-N′-(4-methoxyphenyl)propanimidamide Hydrochloride]",cure rate,Plasmodium berghei; 30 mg/kg once daily oral for 4 consecutive days,33%
same,cure rate,Plasmodium berghei; 50 mg/kg once daily oral for 4 consecutive days,66%
same,MSD (mean survival time),Plasmodium berghei; 4 × 3 mg/kg oral,euthanized
same,cured (number of parasite-free mice on day 30),Plasmodium berghei; 4 × 3 mg/kg oral,0/3
same,cured (number of parasite-free mice on day 30),Plasmodium berghei; 4 × 10 mg/kg oral,0/3
same,cured (number of parasite-free mice on day 30),Plasmodium berghei; 4 × 30 mg/kg oral,1/3
same,MSD (mean survival time),Plasmodium berghei; [6],28 days
same,cured (number of parasite-free mice on day 30),Plasmodium berghei; 4 × 50 mg/kg oral,2/3
same,signs of toxicity during the in vivo studies,"Plasmodium berghei; mice, oral doses 3-50 mg/kg",no obvious signs of toxicity
same,outcome of resistance selection,Pf_Polδ,unable to readily generate resistant parasites
same,AUC(0-inf),[2]; 3 mg/kg,30 ng·h/mL
same,AUC(0-t),[2]; 3 mg/kg,28.9 ng·h/mL
same,half-life,[2]; 3 mg/kg,5.49 h
same,k el,"[2]; 3 mg/kg, single oral dose 3 mg/kg, mouse I",3.69e-05 s⁻¹
same,k el,"[2]; 3 mg/kg, single oral dose 3 mg/kg, mouse II",3.51e-05 s⁻¹
same,AUC(0-inf),[2]; 10 mg/kg,365 ng·h/mL
same,AUC(0-t),[2]; 10 mg/kg,361 ng·h/mL
same,half-life,[2]; 10 mg/kg,5.26 h
same,k el,"[2]; 10 mg/kg, single oral dose 10 mg/kg, mouse I",4.66e-05 s⁻¹
same,k el,"[2]; 10 mg/kg, single oral dose 10 mg/kg, mouse II",3.66e-05 s⁻¹
same,AUC(0-inf),[2]; 30 mg/kg,1310 ng·h/mL
same,AUC(0-t),[2]; 30 mg/kg,1080 ng·h/mL
same,half-life,[2]; 30 mg/kg,9.95 h
same,k el,"[2]; 30 mg/kg, single oral dose 30 mg/kg, mouse I",1.94e-05 s⁻¹
same,k el,"[2]; 30 mg/kg, single oral dose 30 mg/kg, mouse II",2.74e-05 s⁻¹
same,inhibition of hemoglobin degradation,[3],some inhibition of hemoglobin degradation
same,shift in IC50 value in compound 1-resistant clones,[4],1.6 fold
same,effect of pfmdr1 copy number on sensitivity,[1],the decrease from two to one pfmdr1 copy caused a further sensitization
same,outcome of resistance selection,Pf Dd2 clone B2 (Dd2-B2),no viable parasites after 60 days
"Cl.N/C(CC(O)c1c2ccccc2cc2ccccc12)=N\c1ccc(F)cc1 (centres unmarked) [Compound 23, (Z)-3-(Anthracene-9-yl)-N′-(4-fluorophenyl)-3-hydroxypropanimidamide Hydrochloride]",cured (number of parasite-free mice on day 30),Plasmodium berghei; 4 × 50 mg/kg oral,0/3
same,MSD (mean survival time),"Plasmodium berghei; 4 × 50 mg/kg oral, monitored up to 30 days",euthanized
same,activity,"Plasmodium berghei; 4 × 50 mg/kg oral, parasitemia by FACS on day 4, 50 mg/kg",44%
"CCCCN(CCCC)CCC(O)c1cc2c(Cl)cc(Cl)cc2c2cc(C(F)(F)F)ccc12 (centres unmarked) [HF, Halofantrine]",plasma protein binding,[5],100%
"CCCCN(CCCC)CC(O)c1cc(Cl)cc2c1-c1ccc(Cl)cc1/C2=C/c1ccc(Cl)cc1 (centres unmarked) [LUM, Lumefantrine, reference compound]",cured (number of parasite-free mice on day 30),Plasmodium berghei; 4 × 30 mg/kg oral,3/3
